Reference: patent US11559490B2, “Pharmaceutical formulation” (Merck Patent GmbH, priority 2017, dated 2023)

Experiments:
[1] = biological target: DNA-dependent protein kinase (DNA-PK) (Homo sapiens, UniProt P78527); conditions: cited from earlier work
NCI-H460 = conditions: 150 mg/kg oral, 10 min prior to each 2 Gy fraction, 5 days (10 Gy)
Experimental: (§1) The therapeutic relevance of DNA-PK inhibition by the drug substance as such was investigated in vivo in combination with ionizing radiation (IR), a clinically established DSB-inducing treatment. The drug substance was tested for activity in six xenograft mouse models of human cancer. The models were chosen from different cancer indications (colon, lung, head and neck, pancreatic), and histological subtypes (adeno, squamous, large cell). Ionizing radiation was administered using a fractionated schedule of 2 Gy per day administered over five consecutive days (total radiation dose=10 Gy). […] 10 min prior to each fraction of radiation (ONC397-1-2AZ, ONC397-1-3AZ, ONC397-1-4AZ, ONC397-1-5AZ, ONC397-1-8AZ).
(§2) The radiotherapy enhancing effect was quantified across the tested models by the time to reaching 400% initial volume for the 150 mg/kg study arms. The resulting Kaplan-Meier plots were compared by the log-rank test.

A549 = conditions: 150 mg/kg oral, 10 min prior to each 2 Gy fraction, 5 days (10 Gy)
Experimental: as §1, §2

HCT116 = conditions: 150 mg/kg oral, 10 min prior to each 2 Gy fraction, 5 days (10 Gy)
Experimental: as §1, §2

[2] = Solubility of drug substance in water and simulated gastric fluids; type: physicochemical
[3] = tested on: DNA-PK autophosphorylation in cancer cell lines; conditions: cited from earlier work
[4] = tested on: six xenograft mouse models of human cancer; test: Xenograft mouse models of human cancer, combination with ionizing radiation; type: in vivo; conditions: all models, oral administration with fractionated radiation 2 Gy x 5
Experimental: as §1, §2

COc1ccc([C@@H](O)c2cc(-c3ncnc4cc(N5CCOCC5)ccc34)c(F)cc2Cl)nn1 [drug substance, (S)-[2-chloro-4-fluoro-5-(7-morpholin-4-yl-quinazolin-4-yl)phenyl]-(6-methoxy-pyridazin-3-yl)methanol]
inhibition of DNA-PK activity [1]: potent and selective inhibitor
enhancement ratio (time to reaching 400% initial volume) (NCI-H460): 2.6
enhancement ratio (time to reaching 400% initial volume) (A549): 1.5
enhancement ratio (time to reaching 400% initial volume) (HCT116): 1.5
solubility in water and simulated gastric fluids [2]: poor solubility
inhibition of DNA-PK autophosphorylation [3]: potent inhibition
enhancement of the radiation effect [4]: strong enhancement of the radiation effect
